Measurements taken from patent publication US20070213346A1, “Substituted 4-Alkyl-And 4-Alkanoyl-Piperidine Derivatives And Their Use As Neurokinin Antagonists” (priority 2004, published 2007).

Tests used:
Type in all cases: cell-based
NK1 = NK1 (Homo sapiens, UniProt P25103); assay: Signal transduction (ST), intracellular Ca++ FLIPR, NK1; conditions: antagonist, Ca++ transient peak, read-out: NK1 pIC50 (converted)
Protocol: (§1) This test evaluates in vitro functional NK1 antagonistic activity. For the measurements of intracellular Ca^++ concentrations the cells were grown on 96-well (black wall/transparent bottom) plates from Costar for 2 days until they reached confluence. The cells were loaded with 2 μM Fluo3 in DMEM containing 0.1% BSA and 2.5 mM probenecid for 1 h at 37° C. They were washed 3× with a Krebs buffer (140 mM NaCl, 1 mM MgCl2x6H2O, 5 mM KCl, 10 mM glucose, 5 mM HEPES; 1.25 mM CaCl2; pH 7.4) containing 2.5 mM probenecid and 0.1% BSA (Ca^++-buffer). The cells were preincubated with a concentration range of antagonists for 20 min at RT and Ca^++-signals after addition of the agonists were measured in a Fluorescence Image Plate Reader (FLIPR from Molecular Devices, Crawley, England). The peak of the Ca^++-transient was considered as the relevant signal and the mean values of corresponding wells were analysed as described below.
The sigmoidal dose response curves were analysed by computerised curve-fitting, using the GraphPad program. The EC50-value of a compound is the effective dose showing 50% of maximal effect. For mean curves the response to the agonist with the highest potency was normalised to 100%. For antagonist responses the IC50-value was calculated using non-linear regression. […]

NK3 = biological target: T1, NK3 (Homo sapiens, UniProt P29371); assay: Signal transduction (ST), intracellular Ca++ FLIPR, NK3; conditions: antagonist, Ca++ transient peak, read-out: NK3 pIC50 (converted)
T1 sequence (P29371 1-465): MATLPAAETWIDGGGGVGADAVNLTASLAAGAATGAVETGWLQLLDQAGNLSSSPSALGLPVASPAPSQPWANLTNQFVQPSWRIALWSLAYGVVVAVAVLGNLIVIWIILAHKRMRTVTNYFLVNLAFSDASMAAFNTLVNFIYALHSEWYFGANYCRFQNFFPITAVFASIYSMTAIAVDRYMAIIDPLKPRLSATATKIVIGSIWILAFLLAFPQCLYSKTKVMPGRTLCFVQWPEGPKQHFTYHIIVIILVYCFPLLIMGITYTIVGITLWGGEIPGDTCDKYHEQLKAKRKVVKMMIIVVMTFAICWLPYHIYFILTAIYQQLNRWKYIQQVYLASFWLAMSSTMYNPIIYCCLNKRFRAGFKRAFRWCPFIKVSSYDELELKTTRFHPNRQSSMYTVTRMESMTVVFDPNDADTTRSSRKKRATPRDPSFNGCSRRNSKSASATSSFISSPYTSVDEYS
Protocol: [The source words this procedure for another target and reports this target under the same test.] as §1
(§2) The sigmoidal dose response curves were analysed by computerised curve-fitting, using the GraphPad program. The EC50-value of a compound is the effective dose showing 50% of maximal effect. For mean curves the response to the agonist with the highest potency was normalised to 100%. For antagonist responses the IC50-value was calculated using non-linear regression.
(§3) The last columns indicates—without being limited thereto—for which use the compounds might be most suitable. Of course, since for some neurokinin receptors no data was determined, it is obvious that these compounds might be attributed to another suitable use.

NK2 = biological target: T2, NK2 (Homo sapiens, UniProt P21452); assay: Signal transduction (ST), intracellular Ca++ FLIPR, NK2; conditions: antagonist, Ca++ transient peak, read-out: NK2 pIC50 (converted)
T2 sequence (P21452 1-398): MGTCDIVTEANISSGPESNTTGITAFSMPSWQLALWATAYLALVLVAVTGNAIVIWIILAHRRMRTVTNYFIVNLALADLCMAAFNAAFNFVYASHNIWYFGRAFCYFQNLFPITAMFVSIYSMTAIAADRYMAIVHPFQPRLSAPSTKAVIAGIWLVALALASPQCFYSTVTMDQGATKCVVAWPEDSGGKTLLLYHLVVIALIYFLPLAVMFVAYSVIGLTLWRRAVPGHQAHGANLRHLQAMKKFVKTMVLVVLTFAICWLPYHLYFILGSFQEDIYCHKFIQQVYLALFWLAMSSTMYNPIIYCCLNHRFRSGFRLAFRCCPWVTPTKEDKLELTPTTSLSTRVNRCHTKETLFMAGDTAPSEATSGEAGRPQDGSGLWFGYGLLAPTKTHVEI
Protocol: [The source words this procedure for another target and reports this target under the same test.] as §1, §2, §3

Chain of NK1 (P25103 whole entry): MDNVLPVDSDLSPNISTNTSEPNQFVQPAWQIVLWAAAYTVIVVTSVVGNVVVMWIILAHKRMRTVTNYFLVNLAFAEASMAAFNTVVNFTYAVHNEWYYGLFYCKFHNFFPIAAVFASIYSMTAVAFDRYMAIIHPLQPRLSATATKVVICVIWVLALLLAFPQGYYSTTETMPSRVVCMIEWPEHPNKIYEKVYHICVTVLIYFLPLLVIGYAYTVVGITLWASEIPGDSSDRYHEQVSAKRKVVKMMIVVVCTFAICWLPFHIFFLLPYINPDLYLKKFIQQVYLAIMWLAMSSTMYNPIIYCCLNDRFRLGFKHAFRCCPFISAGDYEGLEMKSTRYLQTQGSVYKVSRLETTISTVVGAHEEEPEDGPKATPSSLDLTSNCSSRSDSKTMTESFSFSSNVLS

SMILES | IC50 (NK1) [nM] | IC50 (NK3) [µM] | IC50 (NK2) [µM]
O=C(c1ccoc1)N1CCC(N2CCN(C(=O)[C@H]3CCN(C(=O)c4cc(C(F)(F)F)cc(C(F)(F)F)c4)[C@H](Cc4ccccc4)C3)CC2)C1 (some centres unmarked) [Compound 70] | 25.7 | > 10 | 
O=C(c1ccoc1)N1CCC(N2CCN(C(=O)[C@H]3CCN(C(=O)c4cc(C(F)(F)F)cc(C(F)(F)F)c4)[C@H](Cc4ccccc4)C3)CC2)CC1 [Compound 57] | 22.9 | 2.45 | 
Cc1cccc(C(=O)N2CCC(N3CCN(C[C@H]4CCN(C(=O)c5cc(C(F)(F)F)cc(C(F)(F)F)c5)[C@H](Cc5ccccc5)C4)CC3)CC2)c1 [Compound 41] | 166 |  | 
Cc1nnsc1C(=O)N1CCC(N2CCN(C(=O)[C@H]3CCN(C(=O)c4cc(C(F)(F)F)cc(C(F)(F)F)c4)[C@H](Cc4ccccc4)C3)CC2)CC1 [Compound 58] | 8.71 | > 10 | 
O=C(c1cc2ccccc2oc1=O)N1CCC(N2CCN(C[C@H]3CCN(C(=O)c4cc(C(F)(F)F)cc(C(F)(F)F)c4)[C@H](Cc4ccccc4)C3)CC2)CC1 (relative stereo) [Compound 50] | 91.2 |  | 
O=C(c1ccccc1Cl)N1CCC(N2CCN(C(=O)[C@H]3CCN(C(=O)c4cc(C(F)(F)F)cc(C(F)(F)F)c4)[C@H](Cc4ccccc4)C3)CC2)C1 (some centres unmarked) [Compound 72] | 31.6 | > 10 | 
COC1(CN2CCN(C3CCNC3)CC2)CCN(C(=O)c2cc(C(F)(F)F)cc(C(F)(F)F)c2)C(Cc2ccccc2)C1 (centres unmarked) [Compound 81] | 200 | > 10 | 
O=C(C1CCN(C(=O)c2cc(C(F)(F)F)cc(C(F)(F)F)c2)C(Cc2ccccc2)C1)N1CCN(C2CCN(Cc3ccccc3)CC2)CC1 (centres unmarked) [Compound 3] | 347 | > 10 | 
CC(C)(C)OC(=O)N1CCC(N2CCN(CC3CCN(C(=O)c4cc(C(F)(F)F)cc(C(F)(F)F)c4)C(Cc4ccccc4)C3)CC2)CC1 (centres unmarked) [Compound 5] | 209 | > 10 | 
Cc1cc(C(=O)N2CCC(N3CCN(C[C@H]4CCN(C(=O)c5cc(C(F)(F)F)cc(C(F)(F)F)c5)[C@H](Cc5ccccc5)C4)CC3)CC2)no1 [Compound 36] | 46.8 |  | 
O=C(c1ccccc1)N1CCC(N2CCN(C(=O)[C@H]3CCN(C(=O)c4cc(C(F)(F)F)cc(C(F)(F)F)c4)[C@H](Cc4ccccc4)C3)CC2)CC1 [Compound 59] | 10.7 | 9.55 | 
COC1(CN2CCN(C3CCN(C(=O)c4cccnc4)C3)CC2)CCN(C(=O)c2cc(C(F)(F)F)cc(C(F)(F)F)c2)C(Cc2ccccc2)C1 (centres unmarked) [Compound 88] | 61.7 | > 10 | 
Cn1cc(C(=O)N2CCC(N3CCN(CC4CCN(C(=O)c5cc(C(F)(F)F)cc(C(F)(F)F)c5)C(Cc5ccccc5)C4)CC3)CC2)c2ccccc21 (centres unmarked) [Compound 40] | 347 |  | 
O=C(c1ccc2ccccc2n1)N1CCC(N2CCN(CC3CCN(C(=O)c4cc(C(F)(F)F)cc(C(F)(F)F)c4)C(Cc4ccccc4)C3)CC2)CC1 (centres unmarked) [Compound 16] | 138 |  | 
O=C(c1ccccn1)N1CCC(N2CCN(C[C@H]3CCN(C(=O)c4cc(C(F)(F)F)cc(C(F)(F)F)c4)[C@H](Cc4ccccc4)C3)CC2)CC1 [Compound 47] | 204 |  | 
O=C(c1ccccc1O)N1CCC(N2CCN(CC3CCN(C(=O)c4cc(C(F)(F)F)cc(C(F)(F)F)c4)C(Cc4ccccc4)C3)CC2)CC1 (centres unmarked) [Compound 43] | 123 |  | 
O=C([C@H]1CCN(C(=O)c2cc(C(F)(F)F)cc(C(F)(F)F)c2)[C@H](Cc2ccccc2)C1)N1CCN(C2CCN(Cc3ccccc3)C2)CC1 (some centres unmarked) [Compound 67] | 75.9 | > 10 | 
Cn1cccc1C(=O)N1CCC(N2CCN(C[C@H]3CCN(C(=O)c4cc(C(F)(F)F)cc(C(F)(F)F)c4)[C@H](Cc4ccccc4)C3)CC2)CC1 [Compound 34] | 209 |  | 

Next, values leading:

IC50 (NK1) [nM] | IC50 (NK3) [µM] | IC50 (NK2) [µM] | SMILES
39.8 | 6.03 |  | O=C(C1CCOC1)N1CCC(N2CCN(C(=O)[C@H]3CCN(C(=O)c4cc(C(F)(F)F)cc(C(F)(F)F)c4)[C@H](Cc4ccccc4)C3)CC2)C1 (some centres unmarked) [Compound 69]
251 | > 10 |  | O=C(C1CCN(C(=O)c2cc(C(F)(F)F)cc(C(F)(F)F)c2)C(Cc2ccccc2)C1)N1CCN(C2CCNCC2)CC1 (centres unmarked) [Compound 4]
25.7 |  | > 10 | O=C(c1cccnc1)N1CCC(N2CCN(C[C@H]3CCN(C(=O)c4cc(C(F)(F)F)cc(C(F)(F)F)c4)[C@H](Cc4ccccc4)C3)CC2)CC1 [Compound 48]
316 |  |  | Cc1cc(C)cc(C(=O)N2CCC(N3CCN(CC4CCN(C(=O)c5cc(C(F)(F)F)cc(C(F)(F)F)c5)C(Cc5ccccc5)C4)CC3)CC2)c1 (centres unmarked) [Compound 12]
13.2 | 2.51 |  | O=C(C1CCN(C(=O)c2cc(C(F)(F)F)cc(C(F)(F)F)c2)C(Cc2ccccc2)C1)N1CCN(C2CCN(S(=O)(=O)c3cccs3)C2)CC1 (centres unmarked) [Compound 13]
87.1 |  |  | O=C(c1cccc(O)c1)N1CCC(N2CCN(CC3CCN(C(=O)c4cc(C(F)(F)F)cc(C(F)(F)F)c4)C(Cc4ccccc4)C3)CC2)CC1 (centres unmarked) [Compound 44]
224 |  |  | Cn1cccc1C(=O)N1CCC(N2CCN(CC3CCN(C(=O)c4cc(C(F)(F)F)cc(C(F)(F)F)c4)C(Cc4ccccc4)C3)CC2)CC1 (centres unmarked) [Compound 33]
64.6 | > 10 |  | COC1(CN2CCN(C3CCN(C(=O)c4ccoc4)C3)CC2)CCN(C(=O)c2cc(C(F)(F)F)cc(C(F)(F)F)c2)C(Cc2ccccc2)C1 (centres unmarked) [Compound 85]
302 | > 10 |  | O=C(CC1CCN(C(=O)c2cc(C(F)(F)F)cc(C(F)(F)F)c2)C(Cc2ccccc2)C1)N1CCN(C2CCNC2)CC1 (centres unmarked) [Compound 8]
174 | > 10 |  | CC(C)(C)OC(=O)N1CCC(N2CCN(C(=O)CC3CCN(C(=O)c4cc(C(F)(F)F)cc(C(F)(F)F)c4)[C@@H](Cc4ccccc4)C3)CC2)C1 (mixture of isomers) [Compound 7]
41.7 | > 10 |  | O=C(CC1CCN(C(=O)c2cc(C(F)(F)F)cc(C(F)(F)F)c2)[C@@H](Cc2ccccc2)C1)N1CCN(C2CCN(C(=O)C3CCOC3)C2)CC1 (mixture of isomers) [Compound 73]
120 |  |  | O=C(Cc1c[nH]cn1)N1CCC(N2CCN(CC3CCN(C(=O)c4cc(C(F)(F)F)cc(C(F)(F)F)c4)C(Cc4ccccc4)C3)CC2)CC1 (centres unmarked) [Compound 51]
60.3 | 3.55 |  | COC1(CN2CCN(C3CCN(S(=O)(=O)c4c(C)noc4C)C3)CC2)CCN(C(=O)c2cc(C(F)(F)F)cc(C(F)(F)F)c2)C(Cc2ccccc2)C1 (centres unmarked) [Compound 89]
214 | 6.76 |  | O=C([C@H]1CCN(C(=O)c2cc(C(F)(F)F)cc(C(F)(F)F)c2)[C@H](Cc2ccccc2)C1)N1CCN(C2CCNC2)CC1 (some centres unmarked) [Compound 66]
115 | > 10 |  | COC1(CN2CCN(C3CCN(C(=O)c4ccccc4)C3)CC2)CCN(C(=O)c2cc(C(F)(F)F)cc(C(F)(F)F)c2)C(Cc2ccccc2)C1 (centres unmarked) [Compound 87]
85.1 |  |  | COc1cc(CC(=O)N2CCC(N3CCN(CC4CCN(C(=O)c5cc(C(F)(F)F)cc(C(F)(F)F)c5)C(Cc5ccccc5)C4)CC3)CC2)cc(OC)c1OC (centres unmarked) [Compound 53]
13.2 | 6.61 |  | O=C(C1CC1)N1CCC(N2CCN(C(=O)[C@H]3CCN(C(=O)c4cc(C(F)(F)F)cc(C(F)(F)F)c4)[C@H](Cc4ccccc4)C3)CC2)C1 (some centres unmarked) [Compound 68]
67.6 | 10.2 |  | COC1(CN2CCN(C3CCN(C(=O)c4snnc4C)C3)CC2)CCN(C(=O)c2cc(C(F)(F)F)cc(C(F)(F)F)c2)C(Cc2ccccc2)C1 (centres unmarked) [Compound 86]
